Source: PMC12865225 (Clinical and Translational Science, 2026)
pIC50: −log10 of the molar value.

Key:
OATP2B1 = biological target: T1, OATP2B1 (Homo sapiens, UniProt O94956); assay: OATP2B1 inhibition with fluorescent substrate 4′,5′-dibromofluorescein in HEK293 cells; format: cell-based; conditions: 1 µM 4′,5′-dibromofluorescein, 5 min, 30 min preincubation
T1 construct: expressed in transfected cells; host or cells: HEK293 (recombinant baculovirus-mediated transduction)
T1 sequence (O94956 1-709): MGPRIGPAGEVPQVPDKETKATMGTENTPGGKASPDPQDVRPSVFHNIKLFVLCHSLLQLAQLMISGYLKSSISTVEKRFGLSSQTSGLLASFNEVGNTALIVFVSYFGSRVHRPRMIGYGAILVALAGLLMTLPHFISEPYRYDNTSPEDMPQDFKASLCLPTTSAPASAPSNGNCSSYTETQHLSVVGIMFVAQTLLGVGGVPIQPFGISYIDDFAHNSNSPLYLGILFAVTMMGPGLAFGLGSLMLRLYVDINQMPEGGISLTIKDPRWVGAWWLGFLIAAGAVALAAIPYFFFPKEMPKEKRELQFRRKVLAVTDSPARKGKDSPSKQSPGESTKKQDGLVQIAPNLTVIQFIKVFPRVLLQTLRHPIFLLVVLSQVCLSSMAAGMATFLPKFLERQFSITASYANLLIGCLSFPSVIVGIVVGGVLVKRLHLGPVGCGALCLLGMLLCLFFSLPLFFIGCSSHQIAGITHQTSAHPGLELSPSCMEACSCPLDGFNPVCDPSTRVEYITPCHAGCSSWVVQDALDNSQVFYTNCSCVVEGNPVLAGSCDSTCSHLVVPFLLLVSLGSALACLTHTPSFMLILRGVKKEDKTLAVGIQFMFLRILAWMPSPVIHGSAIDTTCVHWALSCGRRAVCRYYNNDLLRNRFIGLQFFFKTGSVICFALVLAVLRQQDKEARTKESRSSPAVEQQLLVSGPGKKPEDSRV
Description: 8- (2- [Fluoresceinyl]aminoethylthio)adenosine- 3', 5'- cyclic monophosphate (8-Fluo-cAMP) was acquired from Biolog Life Science Institute (Bremen, Germany), 4′,5′-dibromofluorescein was acquired from Sigma-Aldrich (St. Louis, MO, USA) and 2′,7′-dichlorofluorescein was acquired from Santa Cruz Biotechnology (Dallas, TX, USA).
Inhibition studies with fluorescent substrates in OATP transduced HEK293 cells The concentrations of fluorescent probe substrates were 1 µM 2′,7′-dichlorofluorescein for OATP1B1, 2.5 µM 8-Fluo-cAMP for OATP1B3 and 1 µM 4′,5′-dibromofluorescein for OATP2B1, and these concentrations were selected to be within or below of previously reported […]
reported linear ranges of transport for these substrate-transporter combinations.1,2,4 8-Fluo-cAMP was dissolved in ultrapure water, while dimethyl sulfoxide (DMSO) was used for all other compounds. […] For the quantification of fluorescent substrates, cells were lysed with 120 µl of lysis solution (1% Triton X-100, 5 mM EDTA, 150 mM sodium chloride and 150 mM TRIC-hydrochloride and adjusted to pH 8 with sodium hydroxide) for 30 min at 300 RPM shaking before transferring 80 µl of samples to a transparent 96-well plate containing 20 µl of 0.5 M sodium hydroxide. […] The plates were measured with a fluorescent plate reader (Varioskan LUX from ThermoFisher Scientific). […]

MRP3 = tested on: T2, MRP3; assay: Efflux transport assay in MRP3 HEK293 membrane vesicles; format: biochemical, human; conditions: 5 and 50 µM, 10 min
T2 construct: expressed in transfected cells; host or cells: HEK293 cells

P-gp = biological target: T3, P-gp (Homo sapiens, UniProt P08183); assay: Efflux transport assay in P-gp HEK293 membrane vesicles; format: biochemical; conditions: 5 and 50 µM, 10 min
T3 construct: made in house; host or cells: membrane vesicles from HEK293 cells expressing the transporter
Description: Membrane vesicles, 5 μL (7.5 μg of total protein), prepared as previously reported, were aliquoted to wells of a conical‐shaped 96‐well plate. The plate was incubated for 10 min at +37°C before the initiation of transport by adding 25 μL of TS‐buffer (10 mM Tris, 250 mM sucrose, pH adjusted to 7.4 with HEPES) containing magnesium chloride (10 mM final in the reaction), adenosine triphosphate (ATP) or adenosine monophosphate (AMP), 4 mM final in the reaction, and the transporter substrate and inhibitor. Each experiment included triplicate samples for both ATP and AMP samples. The concentrations of rosuvastatin and N‐methyl‐quinidine were 1 μM in the BCRP and P‐gp vesicle inhibition assays, respectively. […] The transport reactions were quenched by adding 200 μL of cold TS‐buffer to each well and transferring the samples to a 96‐multiwell 1.0 μm glass fiber filter plate (Merck Millipore, Darmstadt, Germany) kept under vacuum. Wells were further washed four times with cold TS‐buffer, after which the plate was dried under vacuum. The compounds were eluted from the plate by applying 100 μL of 75% methanol containing 0.1% formic acid to each well and incubating at 250 RPM for 30 min before centrifuging the samples to an analysis plate at 2800 g for 2 min. For the rosuvastatin samples, the elution solvent contained rosuvastin‐d6 as the internal standard. […]

T3 sequence (P08183 whole entry): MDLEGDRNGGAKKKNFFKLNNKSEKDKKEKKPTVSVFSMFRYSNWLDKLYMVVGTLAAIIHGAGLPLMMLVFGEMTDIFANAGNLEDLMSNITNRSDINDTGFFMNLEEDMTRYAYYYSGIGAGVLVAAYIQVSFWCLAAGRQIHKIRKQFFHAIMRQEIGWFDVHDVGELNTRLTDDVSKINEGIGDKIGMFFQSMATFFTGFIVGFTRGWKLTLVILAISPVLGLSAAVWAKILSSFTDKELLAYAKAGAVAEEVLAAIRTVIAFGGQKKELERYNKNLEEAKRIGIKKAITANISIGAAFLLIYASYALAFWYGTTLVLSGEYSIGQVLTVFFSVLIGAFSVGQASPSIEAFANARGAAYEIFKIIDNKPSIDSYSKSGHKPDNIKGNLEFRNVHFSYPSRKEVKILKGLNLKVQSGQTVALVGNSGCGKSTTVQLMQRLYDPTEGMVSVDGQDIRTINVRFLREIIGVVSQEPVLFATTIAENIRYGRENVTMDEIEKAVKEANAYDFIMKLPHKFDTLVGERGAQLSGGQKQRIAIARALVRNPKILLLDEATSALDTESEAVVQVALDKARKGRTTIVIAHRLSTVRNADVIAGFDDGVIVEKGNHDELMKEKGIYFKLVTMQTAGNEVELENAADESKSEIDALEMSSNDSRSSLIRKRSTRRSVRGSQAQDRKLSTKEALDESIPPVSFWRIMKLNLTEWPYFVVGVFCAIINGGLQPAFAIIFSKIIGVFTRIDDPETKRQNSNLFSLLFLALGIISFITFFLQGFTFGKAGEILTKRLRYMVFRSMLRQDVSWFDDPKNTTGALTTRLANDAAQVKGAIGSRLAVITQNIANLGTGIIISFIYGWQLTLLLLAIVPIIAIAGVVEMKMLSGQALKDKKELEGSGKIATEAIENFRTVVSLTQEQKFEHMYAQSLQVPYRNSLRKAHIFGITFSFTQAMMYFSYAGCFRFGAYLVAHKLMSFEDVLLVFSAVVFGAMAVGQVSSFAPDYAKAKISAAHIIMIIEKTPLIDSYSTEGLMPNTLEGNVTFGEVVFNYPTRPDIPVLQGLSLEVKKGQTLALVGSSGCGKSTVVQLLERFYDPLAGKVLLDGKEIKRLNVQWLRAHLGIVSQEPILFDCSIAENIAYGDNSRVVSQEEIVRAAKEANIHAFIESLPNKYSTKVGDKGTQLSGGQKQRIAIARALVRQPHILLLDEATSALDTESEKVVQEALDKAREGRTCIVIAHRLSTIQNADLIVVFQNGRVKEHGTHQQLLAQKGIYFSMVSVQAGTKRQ

In the case of `Cc1onc(-c2c(F)cccc2Cl)c1C(=O)N[C@@H]1C(=O)N2[C@@H]1SC(C)(C)[C@@H]2C(=O)O` [Flucloxacillin], the pIC50 (OATP2B1) was 4.12, the “transport by MRP3” value (MRP3) was “did not transport” and the “transport by P-gp” value (P-gp) was “did not transport”.
In the case of `Cc1onc(-c2c(Cl)cccc2Cl)c1C(=O)N[C@@H]1C(=O)N2[C@@H]1SC(C)(C)[C@@H]2C(=O)O` [Dicloxacillin], the pIC50 (OATP2B1) was 4.42, the “transport by MRP3” value (MRP3) was “did not transport” and the “transport by P-gp” value (P-gp) was “did not transport”.
